Each block holds one compound with its values, some of them ahead of it.
What was measured:
Rattus norvegicus [1] = species: Rattus norvegicus; assay: Toxicity was assessed from activity to convert hemoglobin to methemoglobin in vitro at 400 uM in rat; T-toxic
[2] = Compound was evaluated for Plasma levels upon oral administration at 30 mg/kg in Monkey at maximum of 1.0 hours; type: ADME, organism-based; set-up: dose 30 mg/kg, route oral; details: cercopithecidae, read-out: Concentration
[3] = molecular target: T1, Polyunsaturated fatty acid lipoxygenase ALOX12 (Homo sapiens) (UniProt P18054); assay: Inhibitory activity against human platelet 12-lipoxygenase was evaluated at 100 uM
T1 sequence (whole entry): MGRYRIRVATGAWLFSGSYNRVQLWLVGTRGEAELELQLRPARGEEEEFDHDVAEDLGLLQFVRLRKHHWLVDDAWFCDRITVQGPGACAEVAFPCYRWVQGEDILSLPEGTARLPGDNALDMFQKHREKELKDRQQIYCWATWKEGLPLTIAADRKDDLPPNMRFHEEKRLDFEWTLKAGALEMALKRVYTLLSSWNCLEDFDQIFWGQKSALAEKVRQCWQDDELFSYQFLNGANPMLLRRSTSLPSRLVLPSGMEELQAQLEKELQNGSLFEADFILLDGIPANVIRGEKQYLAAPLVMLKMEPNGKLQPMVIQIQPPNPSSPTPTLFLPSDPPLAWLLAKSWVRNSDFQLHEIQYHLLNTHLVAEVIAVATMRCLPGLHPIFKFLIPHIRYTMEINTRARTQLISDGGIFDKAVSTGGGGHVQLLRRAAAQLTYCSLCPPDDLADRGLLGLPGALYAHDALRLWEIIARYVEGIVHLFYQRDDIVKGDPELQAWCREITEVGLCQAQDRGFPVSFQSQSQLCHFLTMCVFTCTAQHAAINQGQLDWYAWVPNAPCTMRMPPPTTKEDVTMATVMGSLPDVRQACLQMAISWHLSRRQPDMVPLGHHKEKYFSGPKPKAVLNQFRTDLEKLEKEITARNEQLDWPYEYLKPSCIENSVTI

[4] = Half-life upon intravenous administration was tested; type: ADME, organism-based; details: in vivo
[5] = Compound was evaluated for Plasma levels upon oral administration at 30 mg/kg in Monkey at maximum of 0.4 hours; type: ADME, organism-based; set-up: dose 30 mg/kg, route oral; details: cercopithecidae, read-out: Concentration
[6] = molecular target: T2, Polyunsaturated fatty acid 5-lipoxygenase (Homo sapiens, UniProt P09917); assay: Inhibitory activity against intact human PMNL, LTB4 5-lipoxygenase was evaluated
T2 sequence (P09917 whole entry): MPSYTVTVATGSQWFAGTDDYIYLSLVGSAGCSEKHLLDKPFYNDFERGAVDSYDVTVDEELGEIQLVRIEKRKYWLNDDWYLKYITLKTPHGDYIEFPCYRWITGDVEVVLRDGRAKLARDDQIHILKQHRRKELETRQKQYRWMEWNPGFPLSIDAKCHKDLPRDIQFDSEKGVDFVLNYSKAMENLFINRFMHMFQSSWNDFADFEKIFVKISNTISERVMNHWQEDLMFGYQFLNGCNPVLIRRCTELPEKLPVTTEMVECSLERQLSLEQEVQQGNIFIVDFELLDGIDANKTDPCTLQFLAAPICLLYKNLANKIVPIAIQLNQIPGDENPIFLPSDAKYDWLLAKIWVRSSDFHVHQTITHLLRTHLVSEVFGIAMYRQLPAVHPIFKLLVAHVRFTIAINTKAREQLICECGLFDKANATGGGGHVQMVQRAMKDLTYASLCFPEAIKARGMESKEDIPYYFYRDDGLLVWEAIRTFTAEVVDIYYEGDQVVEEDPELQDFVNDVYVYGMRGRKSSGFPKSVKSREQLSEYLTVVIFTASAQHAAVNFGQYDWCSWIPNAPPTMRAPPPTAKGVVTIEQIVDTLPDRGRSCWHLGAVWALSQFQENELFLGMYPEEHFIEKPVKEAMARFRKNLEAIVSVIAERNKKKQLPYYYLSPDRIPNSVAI

[7] = molecular target: Cyclooxygenase (Homo sapiens) (UniProt P35354+P23219); assay: Inhibitory activity against human whole blood, TXB2 cyclooxygenase was evaluated at 100 uM; type: protein assay
[8] = Compound was evaluated for Plasma levels upon oral administration at 30 mg/kg in Dog at maximum of 0.3 hours; type: ADME, organism-based, Canis lupus familiaris; set-up: dose 30 mg/kg, route oral
Rattus norvegicus [9] = assay: In vivo activity of compound was evaluated in a rat anaphylaxis model involving antigen-antibody stimulated leukotriene generation in the peritoneum by oral administration; type: functional
[10] = molecular target: T3, Polyunsaturated fatty acid 5-lipoxygenase (Rattus norvegicus, UniProt P12527); assay: Inhibitory activity against intact rat PMNL, LTB4 5-lipoxygenase was evaluated
T3 sequence (P12527 whole entry): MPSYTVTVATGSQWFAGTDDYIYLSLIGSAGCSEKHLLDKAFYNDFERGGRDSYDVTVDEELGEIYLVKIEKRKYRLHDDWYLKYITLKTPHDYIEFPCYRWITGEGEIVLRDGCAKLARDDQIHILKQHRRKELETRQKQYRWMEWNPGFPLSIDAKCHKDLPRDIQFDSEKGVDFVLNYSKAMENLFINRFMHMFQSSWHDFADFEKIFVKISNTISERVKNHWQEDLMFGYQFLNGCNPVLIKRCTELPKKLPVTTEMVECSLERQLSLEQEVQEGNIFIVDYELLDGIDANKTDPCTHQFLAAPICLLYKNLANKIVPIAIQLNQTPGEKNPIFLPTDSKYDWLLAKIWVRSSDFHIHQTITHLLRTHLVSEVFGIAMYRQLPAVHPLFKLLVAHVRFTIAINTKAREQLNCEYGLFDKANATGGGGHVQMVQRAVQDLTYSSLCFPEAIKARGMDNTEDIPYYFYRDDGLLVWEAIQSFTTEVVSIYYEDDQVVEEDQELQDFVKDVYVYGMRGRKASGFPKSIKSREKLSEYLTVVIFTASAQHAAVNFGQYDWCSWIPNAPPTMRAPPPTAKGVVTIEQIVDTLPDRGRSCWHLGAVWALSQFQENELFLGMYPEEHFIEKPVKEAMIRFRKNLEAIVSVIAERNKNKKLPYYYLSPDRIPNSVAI

[11] = molecular target: Cyclooxygenase (Rattus norvegicus) (UniProt P35355+Q63921); assay: Inhibitory activity against intact rat PMNL, PGE-2 cyclooxygenase was evaluated at 100 uM; type: protein assay
[12] = molecular target: T3, Polyunsaturated fatty acid 5-lipoxygenase; assay: Inhibitory activity against RBL broken cell-supematant 5-lipoxygenase was evaluated; type: cell-based
[13] = molecular target: T2, Polyunsaturated fatty acid 5-lipoxygenase; assay: Inhibitory activity against human whole blood, LTB4 5-lipoxygenase was evaluated
Rattus norvegicus [14] = assay: The in vivo activity of compound was evaluated in a rat anaphylaxis model involving antigen-antibody stimulated leukotriene generation in the peritoneum by oral administration; type: functional
Cyclooxygenase = molecular target: T4, Cyclooxygenase (Rattus norvegicus, UniProt P35355+Q63921); assay: Inhibitory activity against intact rat PMNL, PGE-2 cyclooxygenase was evaluated; type: protein assay
T4 sequence (P35355 whole entry): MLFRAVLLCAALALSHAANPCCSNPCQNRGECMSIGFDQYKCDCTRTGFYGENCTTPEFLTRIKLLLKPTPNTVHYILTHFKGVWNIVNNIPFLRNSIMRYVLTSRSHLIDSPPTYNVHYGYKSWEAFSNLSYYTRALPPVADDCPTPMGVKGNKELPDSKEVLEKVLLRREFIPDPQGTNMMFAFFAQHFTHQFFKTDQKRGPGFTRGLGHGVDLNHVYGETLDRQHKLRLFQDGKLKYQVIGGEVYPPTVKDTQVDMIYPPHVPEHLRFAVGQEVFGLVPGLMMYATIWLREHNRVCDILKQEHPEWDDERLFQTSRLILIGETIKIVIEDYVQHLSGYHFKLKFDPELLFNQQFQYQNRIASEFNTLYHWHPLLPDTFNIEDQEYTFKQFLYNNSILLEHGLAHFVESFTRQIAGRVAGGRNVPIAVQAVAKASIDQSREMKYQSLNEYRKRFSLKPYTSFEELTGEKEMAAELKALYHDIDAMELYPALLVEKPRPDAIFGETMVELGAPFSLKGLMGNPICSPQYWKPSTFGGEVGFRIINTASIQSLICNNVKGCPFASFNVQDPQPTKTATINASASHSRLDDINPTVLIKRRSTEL
T4 sequence (Q63921 whole entry): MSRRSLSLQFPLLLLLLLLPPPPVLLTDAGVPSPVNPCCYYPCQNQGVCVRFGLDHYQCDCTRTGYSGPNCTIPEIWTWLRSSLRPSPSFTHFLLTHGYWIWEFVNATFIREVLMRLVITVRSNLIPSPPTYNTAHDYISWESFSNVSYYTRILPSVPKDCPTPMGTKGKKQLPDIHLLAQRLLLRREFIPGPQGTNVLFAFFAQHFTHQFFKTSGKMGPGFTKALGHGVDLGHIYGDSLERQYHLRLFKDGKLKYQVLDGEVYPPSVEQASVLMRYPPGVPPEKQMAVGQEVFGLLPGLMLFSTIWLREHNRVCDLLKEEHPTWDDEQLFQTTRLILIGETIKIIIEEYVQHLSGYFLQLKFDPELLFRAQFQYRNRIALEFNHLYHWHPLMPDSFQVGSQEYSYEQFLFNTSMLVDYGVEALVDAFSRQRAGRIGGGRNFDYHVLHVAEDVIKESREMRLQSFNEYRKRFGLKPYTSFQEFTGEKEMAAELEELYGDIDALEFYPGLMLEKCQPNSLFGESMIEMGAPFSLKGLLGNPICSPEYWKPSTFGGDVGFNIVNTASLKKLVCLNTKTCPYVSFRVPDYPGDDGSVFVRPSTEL

[15] = molecular target: T5, Polyunsaturated fatty acid lipoxygenase ALOX12 (Homo sapiens, UniProt P18054); assay: Inhibitory activity against human platelet 12-lipoxygenase was evaluated
T5 sequence (P18054 whole entry): T1 sequence (whole entry)

SMILES: O=C(O)[C@H]1O[C@@H](OC2=NN(c3ccccc3)CCC2)[C@H](O)[C@@H](O)[C@@H]1O
- Activity (Rattus norvegicus [1]): Toxic

- Cmax [2]: 90 µM
- inhibition [3]: 7%
- half-life [4]: 1.1 h
- Cmax [5]: 22 µM
- IC50 [6]: 1 µM
- inhibition [7]: 13%
- concentration at 0.3 h [8]: 124 µM
- IC50 [10]: 1.2 µM
- inhibition [11]: 3%
- IC50 [12]: 4.3 µM
- IC50 [13]: 0.7 µM
SMILES: O=C1CCCN(c2ccccc2)N1
- ED50 (Rattus norvegicus [9]): 6 mg/kg

SMILES: O=C1CCCN(c2ccc(O[C@H]3O[C@@H](C(=O)O)[C@H](O)[C@@H](O)[C@@H]3O)cc2)N1
- Activity (Rattus norvegicus [1]): Toxic

SMILES: O=C1CCCN(c2ccc(O)cc2)N1
- Activity (Rattus norvegicus [1]): Toxic

SMILES: NC1=NN(c2cccc(C(F)(F)F)c2)CC1 [BW-755C]
- inhibition [3]: 5%
- ED50 (Rattus norvegicus [14]): 36 mg/kg
- IC50 (Cyclooxygenase): 0.8 µM

SMILES: O=C1CCC(O)N(c2ccccc2)N1 (stereo unspecified)
- Activity (Rattus norvegicus [1]): Toxic

- IC50 [15]: 0.1 µM
SMILES: O=C1CCN(c2ccccc2)N1 [PHENIDONE]
- ED50 (Rattus norvegicus [14]): 17 mg/kg

— ChEMBL document CHEMBL1152112, “1-Phenyl-[2H]-tetrahydropyridazin-3-one, A-53612, a selective orally active 5-lipoxygenase inhibitor” (Bioorg Med Chem Lett, 1992)
